We go through two compounds from patent US20260226048A1, “MULTI-CYCLIC IRAK AND FLT3 INHIBITING COMPOUNDS AND USES THEREOF” (CHILDREN'S HOSPITAL MEDICAL CENTER, priority 2023, published 2026).

One experiment has as its target T1, FLT3 D835H (Homo sapiens, UniProt P36888, D835H).
T1 construct: purchased DiscoverX (KINOMEscan); host or cells: E. coli BL21-derived host (T7 phage) or HEK-293
T1 sequence (P36888 27-993 D835H): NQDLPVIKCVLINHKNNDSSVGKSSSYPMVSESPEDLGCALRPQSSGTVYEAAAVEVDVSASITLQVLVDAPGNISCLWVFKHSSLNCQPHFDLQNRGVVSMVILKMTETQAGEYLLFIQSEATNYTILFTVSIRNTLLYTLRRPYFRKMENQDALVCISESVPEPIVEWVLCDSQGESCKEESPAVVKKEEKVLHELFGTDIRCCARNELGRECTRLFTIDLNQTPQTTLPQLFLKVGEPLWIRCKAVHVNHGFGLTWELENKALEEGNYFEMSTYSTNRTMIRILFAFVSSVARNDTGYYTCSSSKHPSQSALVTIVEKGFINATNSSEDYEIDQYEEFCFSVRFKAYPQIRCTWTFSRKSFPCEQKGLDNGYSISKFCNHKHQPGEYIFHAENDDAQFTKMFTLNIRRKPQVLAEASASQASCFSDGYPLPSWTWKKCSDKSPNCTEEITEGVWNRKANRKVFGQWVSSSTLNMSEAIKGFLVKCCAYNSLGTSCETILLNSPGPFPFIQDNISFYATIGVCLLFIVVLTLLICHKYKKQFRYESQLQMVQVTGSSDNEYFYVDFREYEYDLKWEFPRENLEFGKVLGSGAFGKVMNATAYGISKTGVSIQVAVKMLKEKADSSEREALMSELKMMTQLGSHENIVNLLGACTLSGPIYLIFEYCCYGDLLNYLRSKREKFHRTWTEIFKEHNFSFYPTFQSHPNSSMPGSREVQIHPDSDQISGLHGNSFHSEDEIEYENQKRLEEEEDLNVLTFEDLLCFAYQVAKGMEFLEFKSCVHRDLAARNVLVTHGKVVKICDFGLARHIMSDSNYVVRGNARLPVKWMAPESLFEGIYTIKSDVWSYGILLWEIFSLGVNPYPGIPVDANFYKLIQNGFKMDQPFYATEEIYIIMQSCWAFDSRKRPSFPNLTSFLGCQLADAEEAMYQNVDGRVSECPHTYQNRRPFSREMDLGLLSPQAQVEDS
Kind of experiment: DiscoverX KINOMEscan competition binding assay, FLT3 D835H. Conditions: 11-point 3-fold dilution. From the text:
(§1) […]. […] As a result, the data report thermodynamic interaction affinities (Kd values), rather than IC50 values that are dependent on ATP concentrations. The assay uses a DNA-tagged version of the protein kinase, and an immobilized ligand bound to a solid support. Compounds that directly or indirectly prevent kinase binding to the immobilized ligand reduce the amount of kinase captured on the solid support, which is detected using an ultra-sensitive qPCR method. Affinity constants reported from the assay have been reported to be independent of the immobilized ligand used that is coupled to the solid support (See supplemental information in Fabian, M. A. et. al., (2005) Nat. Biotechnol. 23, 329-336; Wodicka, L. M. et. al., (2010) Chem. Biol. 17, 1241-1249.)
(§2) Kinase-tagged T7 phage strains were prepared in an E. coli host derived from the BL21 strain. E. coli were grown to log-phase and infected with T7 phage and incubated with shaking at 32° C. until lysis. The lysates were centrifuged and filtered to remove cell debris. The remaining kinases were produced in HEK-293 cells and subsequently tagged with DNA for qPCR detection. Streptavidin-coated magnetic beads were treated with biotinylated small molecule ligands for 30 minutes at room temperature to generate affinity resins for kinase assays. The liganded beads were blocked with excess biotin and washed with blocking buffer (SeaBlock (Pierce), 1% BSA, 0.05% Tween 20, 1 mM DTT) to remove unbound ligand and to reduce non-specific binding. […] Test compounds were prepared as 111× stocks in 100% DMSO. Kds were determined using an 11-point 3-fold compound dilution series with three DMSO control points. All compounds for Kd measurements are distributed by acoustic transfer (non-contact dispensing) in 100% DMSO. The compounds were then diluted directly into the assays such that the final concentration of DMSO was 0.9%. All reactions were performed in polypropylene 384-well plates. Each was a final volume of 0.02 mL. […] The kinase concentration in the eluates was measured by qPCR.
(§3) Binding constants (Kds) were calculated with a standard dose-response curve using the Hill equation. The Hill Slope was set to −1. Curves were fitted using a non-linear least square fit with the Levenberg-Marquardt algorithm.

A further experiment deals with T2, FLT3 K663Q (Homo sapiens, UniProt P36888, K663Q).
T2 construct: purchased DiscoverX (KINOMEscan); host or cells: E. coli BL21-derived host (T7 phage) or HEK-293
T2 sequence (P36888 27-993 K663Q): T1 sequence (P36888 27-993 D835H) with K637Q, H809D
Kind of experiment: DiscoverX KINOMEscan competition binding assay, FLT3 K663Q. As to conditions: 11-point 3-fold dilution.
Source text: as §1, §2, §3

A further experiment deals with THP1 cells (FLT3 WT). Description: Combination drug screening with venetoclax in THP1 cells (Cell Titre Glo, 10 × 10). It is filed as cell-based. As to conditions: for Excess HSA (sum excess HSA score, combination with venetoclax): 10 × 10 dataset, Cell Titre Glo at 48 hours, optimal of 4 dose combinations, negative = synergy; for Concentration needed to decrease the 312.5 nM Venetoclax response to <20%: Cell Titer Glo at 48 hours. On the procedure:
These assays were performed using the Cell Titre Glo assay, measured at 48 hours.
A smaller concentration indicates higher potency to synergize with Venetoclax.
A general note: ATP-based viability assays read luminescence as a measure of living cells.

Numbering of substitutions follows the chain as printed.

By Kd is commonly meant the free concentration of one partner at which half of the binding sites on the other are occupied at equilibrium, for simple one-to-one binding. The low end stands for tighter binding, the high end for weaker binding.

The compound `COc1cc2ncc(-c3nc(N[C@H]4CNCC[C@@H]4F)ncc3F)n2nc1C1COC1` [Compound 92a, 5-fluoro-N-((3S,4S)-4-fluoropiperidin-3-yl)-4-(7-methoxy-6-(oxetan-3-yl)imidazo[1,2-b]pyridazin-3-yl)pyrimidin-2-amine] came in with a Kd at FLT3 D835H below 0.17 nM. Further, the Kd at FLT3 K663Q amounted to 0.49 nM. Also, in the experiment with THP1 cells (FLT3 WT), the “Excess HSA (sum excess HSA score, combination with venetoclax)” value is on record as −529.2 and the “Concentration needed to decrease the 312.5 nM Venetoclax response to <20%” value was found to be 5 µM.
For the compound `CC(C)(O)c1cn2c(-c3nc(N[C@H]4CNCC[C@@H]4F)ncc3F)cnc2cn1` [Compound 100a, 2-(3-(5-fluoro-2-(((3S,4S)-4-fluoropiperidin-3-yl)amino)pyrimidin-4-yl)imidazo[1,2-a]pyrazin-6-yl)propan-2-ol], the equilibrium dissociation constant (Kd) on FLT3 D835H amounted to 6.3 nM; at FLT3 K663Q, 30 nM. Besides, the “Excess HSA (sum excess HSA score, combination with venetoclax)” value in the experiment with THP1 cells (FLT3 WT) was −1080. The “Concentration needed to decrease the 312.5 nM Venetoclax response to <20%” value in the experiment with THP1 cells (FLT3 WT) came out at 10 µM.
